According to EP4631940A1, “COMPOUND TARGETING PAN-KRAS PROTEIN DEGRADATION AGENT AND USE THEREOF” (Betta Pharmaceuticals Co., Ltd., priority 2022, dated 2024):
Where two headings read alike, the source gives them in different places.

Assays:
[1] = system: AGS; assay: Cell proliferation experiment (CellTiter-Glo); assay type: cell-based; details: read-out: IC50(nM) AGS
[2] = system: SW620; assay: Cell proliferation experiment (CellTiter-Glo); assay type: cell-based; details: read-out: IC50(nM) SW620
[3] = system: H358; assay: Cell proliferation experiment (CellTiter-Glo); assay type: cell-based; details: H358, KRAS mutation type G12C, 96 h incubation
[4] = target: T1, KRAS G12D (Homo sapiens, UniProt P01116, G12D)
T1 sequence (P01116 1-188 isoform P01116-2 G12D): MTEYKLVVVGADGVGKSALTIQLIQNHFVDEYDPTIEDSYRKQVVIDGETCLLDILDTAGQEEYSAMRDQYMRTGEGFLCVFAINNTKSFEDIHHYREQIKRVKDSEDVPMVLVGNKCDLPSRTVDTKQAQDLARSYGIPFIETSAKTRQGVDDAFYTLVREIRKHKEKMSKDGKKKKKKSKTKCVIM

[5] = target: T1, KRAS G12D; assay: cell-based; details: AGS
[6] = in vitro; details: human, microsomes
[7] = in vitro; details: rat, microsomes
[8] = in vitro; details: mouse, microsomes
[9] = in vitro; details: dog, microsomes

Molecule | IC50 [1] | IC50 [2] | IC50 [3] | IC50 ([1]; Homo sapiens, AGS, 96 h) | IC50 ([2]; Homo sapiens, SW-620, 96 h) | DC50 [4] | Dmax [5] | microsomal CLint [6] | microsomal CLint [7] | microsomal CLint [8] | microsomal CLint [9] | IC50 ([3]; Homo sapiens, NCI-H358)
CCc1c(F)ccc2cc(O)cc(-c3ncc4c(N5CCC[C@@](C)(O)C5)nc(OCC5(CN6CCC(Oc7cnc(-c8cn([C@H](C(=O)N9C[C@H](O)C[C@H]9C(=O)N[C@@H](CO)c9ccc(-c%10scnc%10C)cc9)C(C)C)nn8)cn7)CC6)CC5)nc4c3F)c12 [Compound 178] | 2.5 nM | 9.4 nM | 5.7 nM |  |  |  |  |  |  |  |  | 
C=C1CN2[C@H](COC(=O)N3CCC4(CC3)CC(CNC(=O)C[C@H](NC(=O)[C@@H]3C[C@@H](O)CN3C(=O)C(c3cc(C)no3)C(C)C)c3ccc(-c5scnc5C)cc3)C4)CC[C@@]2(COc2nc(N3CCC[C@@](C)(O)C3)c3cnc(-c4cc(O)cc5ccc(F)c(CC)c45)c(F)c3n2)C1 (single isomer, unassigned) [Compound 139] |  |  |  | 84 nM | 2040 nM | 31 nM | 95% |  |  |  |  | 
CCc1c(F)ccc2cc(O)cc(-c3ncc4c(N5CCC[C@@](C)(O)C5)nc(OCC5(CN6CCC(F)(COc7cc([C@H](C(=O)N8C[C@H](O)C[C@H]8C(=O)N[C@@H](C)c8ccc(-c9scnc9C)cc8)C(C)C)on7)CC6)CC5)nc4c3F)c12 [Compound 100] |  |  |  | 11 nM | 38 nM | 9.5 nM | 95% | 47 µL/min/mg | 7.9 µL/min/mg | 3.2 µL/min/mg | 57.5 µL/min/mg | 
CCc1c(F)ccc2cc(O)cc(-c3ncc4c(N5CCC[C@@](C)(O)C5)nc(OCC5(CN6C[C@@H]7CN(c8cc([C@H](C(=O)N9C[C@H](O)C[C@H]9C(=O)N[C@@H](C)c9ccc(-c%10scnc%10C)cc9)C(C)C)on8)C[C@@H]7C6)CC5)nc4c3F)c12 [Compound 113] |  |  |  | 8.3 nM | 49 nM | 9.3 nM | 95% |  |  |  |  | 
CCc1c(F)ccc2cc(O)cc(-c3ncc4c(N5CCCC(C)(O)C5)nc(OCC5(CN6CCC(COc7ccc(C(=O)N[C@H](C(=O)N8C[C@H](O)C[C@H]8C(=O)N[C@@H](C)c8ccc(-c9scnc9C)cc8)C(C)(C)C)cc7)CC6)CC5)nc4c3F)c12 (stereo partly drawn) [Compound 1, (2S,4R)-1-((2S)-2-(4-((1-((1-(((7-(8-ethyl-7-fluoro-3-hydroxynaphthalen-1-yl)-8-fluoro-4-(3-hydroxy-3-methylpiperidin-1-yl)pyrido[4,3-d]pyrimidin-2-yl)oxy)methyl)cyclopropyl)methyl)piperidin-4-yl)methoxy)benzamido)-3,3-dimethylbutanoyl)-4-hydroxy-N-((S)-1-(4-(4-methylthiazol-5-yl)phenyl)ethyl)pyrrolidine-2-carboxamide] |  |  |  | 109 nM |  |  |  |  |  |  |  | 1080 nM
CCc1c(F)ccc2cc(O)cc(-c3ncc4c(N5CCC[C@@](C)(O)C5)nc(OCC5(CN6CCC7(CC6)CN(Cc6cnc(-c8cn([C@H](C(=O)N9C[C@H](O)C[C@H]9C(=O)N[C@@H](C)c9ccc(-c%10scnc%10C)cc9)C(C)C)nn8)cn6)C7)CC5)nc4c3F)c12 [Compound 189] | 2.9 nM | 13 nM | 15 nM |  |  |  |  |  |  |  |  | 
(2S,4R)-1-((2R)-2-(3-(3-(4-((1-((7-(8-ethyl-7-fluoro-3-hydroxynaphthalen-1-yl)-8-fluoro-4-((R) 3-hydroxy-3-methylpiperidin-1-yl)pyrido[4,3-d]pyrimidin-2-yl)oxy)methyl)cyclopropyl)methyl) piperazin-1-yl)pyrrolidin-1-yl)isoxazol-5-yl)-3-methylbutanoyl)-4-hydroxy-N-((S)-1-(4-(4-meth ylthiazol-5-yl)phenyl)ethyl)pyrrolidine-2-carboxamide [Compound 166] | 4.9 nM | 33 nM | 21 nM |  |  |  |  |  |  |  |  | 
C=C1CN2[C@H](COc3ccc(-c4cn([C@H](C(=O)N5C[C@H](O)C[C@H]5C(=O)N[C@@H](C)c5ccc(-c6scnc6C)cc5)C(C)C)nn4)cn3)CC[C@@]2(COc2nc(N3CCC[C@@](C)(O)C3)c3cnc(-c4cc(O)cc5ccc(F)c(CC)c45)c(F)c3n2)C1 [Compound 124] |  |  |  | 15 nM | 135 nM | 21 nM | 95% | 49.7 µL/min/mg | 9.1 µL/min/mg | 18.6 µL/min/mg | 88 µL/min/mg | 
CCc1c(F)ccc2cc(O)cc(-c3ncc4c(N5CCC[C@@](C)(O)C5)nc(OCC5(CN6CCC(c7ccc(-c8cn([C@H](C(=O)N9C[C@H](O)C[C@H]9C(=O)N[C@@H](C)c9ccc(-c%10scnc%10C)cc9)C(C)C)nn8)cn7)CC6)CC5)nc4c3F)c12 [Compound 203] |  |  |  | 11 nM | 47 nM | 14 nM | 95% |  |  |  |  | 
CCc1c(F)ccc2cc(O)cc(-c3ncc4c(N5CCC[C@@](C)(O)C5)nc(OCC5(CN6CCC(c7ccc(-c8cn([C@H](C(=O)N9C[C@H](O)C[C@H]9C(=O)N[C@@H](C)c9ccc(-c%10scnc%10C)cc9)C(C)(C)C)nn8)cc7)CC6)CC5)nc4c3F)c12 [Compound 119] |  |  |  | 37 nM |  |  |  | 6.1 µL/min/mg | 9.1 µL/min/mg | 10.4 µL/min/mg | 14.9 µL/min/mg | 
CCc1c(F)ccc2cc(O)cc(-c3ncc4c(N5CCC[C@@](C)(O)C5)nc(OCC5(CN6CCC7(CC6)CN(c6cc([C@H](C(=O)N8C[C@H](O)C[C@H]8C(=O)N[C@@H](C)c8ccc(-c9scnc9C)cc8)C(C)C)on6)C7)CC5)nc4c3F)c12 [Compound 105] |  |  |  | 12 nM |  | 8.9 nM | 95% | 9.9 µL/min/mg | 5.9 µL/min/mg | 13.3 µL/min/mg | 28.5 µL/min/mg | 
CCc1c(F)ccc2cc(O)cc(-c3ncc4c(N5CCC[C@@](C)(O)C5)nc(OCC5(CN6CCN(CC7CCN(c8cc([C@H](C(=O)N9C[C@H](O)C[C@H]9C(=O)N[C@@H](C)c9ccc(-c%10scnc%10C)cc9)C(C)C)on8)CC7)CC6)CC5)nc4c3F)c12 [Compound 111] |  |  |  | 20 nM |  | 21 nM | 95% | 21.7 µL/min/mg | 15.7 µL/min/mg | 10.6 µL/min/mg | 8.4 µL/min/mg | 
CCc1c(F)ccc2cc(O)cc(-c3ncc4c(N5CCC[C@@](C)(O)C5)nc(OCC5(CN6CCC(Oc7cc([C@H](C(=O)N8C[C@H](O)C[C@H]8C(=O)N[C@@H](C)c8ccc(-c9scnc9C)cc8)C(C)C)on7)CC6)CC5)nc4c3F)c12 [Compound 114, (2S,4R)-1-((R)-2-(3-((1-((1-(((7-(8-ethyl-7-fluoro-3-hydroxynaphthalen-1-yl)-8-fluoro-4-((R)-3-hydroxy-3-methylpiperidin-1-yl)pyrido[4,3-d]pyrimidin-2-yl)oxy)methyl)cyclopropyl)methyl)piperidin-4-yl)oxy)isoxazol-5-yl)-3-methylbutanoyl)-4-hydroxy-N-((S)-1-(4-(4-methylthiazol-5-yl)phenyl)ethyl)pyrrolidine-2-carboxamide] |  |  |  | 13 nM |  | 18 nM | 95% | 46.5 µL/min/mg | 25.2 µL/min/mg | 18.9 µL/min/mg | 50.5 µL/min/mg | 
(2S,4R)-1-((S)-2-(4-(5-(7-((7-(8-ethyl-7-fluoro-3-hydroxynaphthalen-1-yl)-8-fluoro-4-((R)-3-hy droxy-3-methylpiperidin-1-yl)pyrido[4,3-d]pyrimidin-2-yl)oxy)methyl)cyclopropyl)methyl)-2,7-azaspiro[3.5]nonan-2-yl)pyrazin-2-yl)-1H-1,2,3-triazol-1-yl)-3-methylbutanoyl)-4-hydroxy-N-(( R)-2-hydroxy-1-(4-(4-methylthiazol-5-yl)phenyl)ethyl)pyrrolidine-2-carboxamide [Compound 170] | 3.6 nM | 19 nM | 8.5 nM |  |  |  |  |  |  |  |  | 
CCc1c(F)ccc2cc(O)cc(-c3ncc4c(N5CCC[C@@](C)(O)C5)nc(OCCN5CCC(COc6ccc(-c7cn([C@H](C(=O)N8C[C@H](O)C[C@H]8C(=O)N[C@@H](C)c8ccc(-c9scnc9C)cc8)C(C)C)nn7)cc6)CC5)nc4c3F)c12 [Compound 67] |  |  |  | 40 nM | 1720 nM | 22 nM | 78% |  |  |  |  | 
CCc1c(F)ccc2cc(O)cc(-c3ncc4c(N5CCC[C@@](C)(O)C5)nc(OCC5(CN6CCC(N7CCN(c8cc([C@H](C(=O)N9C[C@H](O)C[C@H]9C(=O)N[C@@H](C)c9ccc(-c%10scnc%10C)cc9)C(C)C)on8)CC7)CC6)CC5)nc4c3F)c12 [Compound 115] |  |  |  | 29 nM |  | 21 nM | 95% | 32.1 µL/min/mg | 13.8 µL/min/mg | 15.9 µL/min/mg | 18.3 µL/min/mg | 
CCc1c(F)ccc2cc(O)cc(-c3ncc4c(N5CCC[C@@](C)(O)C5)nc(OCC5(CN6CCC(n7cc(-c8cn([C@H](C(=O)N9C[C@H](O)C[C@H]9C(=O)N[C@@H](C)c9ccc(-c%10scnc%10C)cc9)C(C)C)nn8)cn7)CC6)CC5)nc4c3F)c12 [Compound 138] |  |  |  | 14 nM | 102 nM | 13 nM | 95% | 11.2 µL/min/mg | 5.7 µL/min/mg | 13.6 µL/min/mg | 25.5 µL/min/mg | 
CCc1c(F)ccc2cc(O)cc(-c3ncc4c(N5CCC[C@@](C)(O)C5)nc(OCC5(CN6CCN(c7cnc(-c8cn([C@H](C(=O)N9C[C@H](O)C[C@H]9C(=O)N[C@@H](C)c9ccc(-c%10scnc%10C)cc9)C(C)C)nn8)cn7)CC6)CC5)nc4c3F)c12 [Compound 134] |  |  |  | 10 nM | 58 nM | 5.9 nM | 95% | 28.4 µL/min/mg | 3 µL/min/mg | 6.4 µL/min/mg | 5.5 µL/min/mg | 
